# Literature values as cited in patent US20080269347A1, “EPINEPHRINE FORMULATIONS” (Azopharma, Inc., priority 2006, published 2008).
# Where a name gives a salt, the structure may show the parent alone. Read-outs that look alike come from different tables or passages of the source.
compound,measurement,setting,value
CNC[C@H](O)c1ccc(O)c(O)c1 [Epinephrine hydrochloride],pH at which unstable,in dextrose (5% in water),above 5.5
same,stability when mixed with lidocaine hydrochloride,"intravenous admixture, pH raised above 5.5 to about 6",begin to deteriorate within several hours
same,decomposition,"pH 2.5, in 200 days at 30° C.",5%
same,decomposition,"pH 4.5, in 200 days at 30° C.",10%
